Reference: ChEMBL document CHEMBL1149399, “Dual inhibitors of thymidylate synthase and dihydrofolate reductase as antitumor agents: design, synthesis, and biological evaluation of classical and nonclassical pyrrolo[2,3-d]pyrimidine antifolates(1)” (J Med Chem, 2006)
One block for each molecule: values may come before it.

Key:
Thymidylate synthase [1] = molecular target: T1, Thymidylate synthase (Homo sapiens, UniProt P04818)
Target sequence in this assay (P04818 whole entry): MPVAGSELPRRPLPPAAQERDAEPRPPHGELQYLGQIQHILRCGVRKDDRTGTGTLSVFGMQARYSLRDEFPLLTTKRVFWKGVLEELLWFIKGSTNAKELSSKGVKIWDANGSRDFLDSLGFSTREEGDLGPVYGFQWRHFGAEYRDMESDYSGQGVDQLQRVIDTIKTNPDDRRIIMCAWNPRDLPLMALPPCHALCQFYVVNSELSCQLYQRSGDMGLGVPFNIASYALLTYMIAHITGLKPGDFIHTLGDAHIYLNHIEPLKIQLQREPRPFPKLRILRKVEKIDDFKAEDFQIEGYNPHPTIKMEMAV

[2] = molecular target: Thymidylate synthase (Escherichia coli) (UniProt C3SWJ7); test: Inhibition of TS from Escherichia coli at >3.2*10-5 nM
Chain of Thymidylate synthase (Escherichia coli) (C3SWJ7 1-264): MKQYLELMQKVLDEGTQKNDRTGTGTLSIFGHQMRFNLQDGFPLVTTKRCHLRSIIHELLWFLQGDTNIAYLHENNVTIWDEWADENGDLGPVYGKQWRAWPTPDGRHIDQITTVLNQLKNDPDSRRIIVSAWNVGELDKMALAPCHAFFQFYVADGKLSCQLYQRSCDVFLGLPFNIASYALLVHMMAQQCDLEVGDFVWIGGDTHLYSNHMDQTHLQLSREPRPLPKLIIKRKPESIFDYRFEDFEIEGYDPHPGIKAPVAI

Thymidylate synthase [3] = molecular target: Thymidylate synthase (Escherichia coli, UniProt C3SWJ7); test: Inhibition of TS from Escherichia coli
Chain of Thymidylate synthase (Escherichia coli, UniProt C3SWJ7) (C3SWJ7 whole entry): as the sequence (C3SWJ7 1-264) above

[4] = molecular target: T2, Dihydrofolate reductase (Homo sapiens) (UniProt P00374); test: Inhibition of recombinant human DHFR at >29 uM
T2 sequence (whole entry): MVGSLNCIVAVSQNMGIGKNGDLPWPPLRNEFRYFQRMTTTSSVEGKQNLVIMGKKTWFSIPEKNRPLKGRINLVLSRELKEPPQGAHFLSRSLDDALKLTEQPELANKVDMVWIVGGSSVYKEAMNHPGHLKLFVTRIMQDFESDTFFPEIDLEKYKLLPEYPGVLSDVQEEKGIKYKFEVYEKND

CCRF-CEM [5] = test: Inhibition of growth in MTX-resistant CCRF-CEM cell line, R30dm cells; type: functional, cell-based; details: Homo sapiens
[6] = Inhibition of DHFR from Escherichia coli
CCRF-CEM [7] = test: Inhibition of growth in CCRF-CEM cells; type: functional, cell-based; details: Homo sapiens
[8] = molecular target: T2, Dihydrofolate reductase (Homo sapiens); test: Inhibition of recombinant human DHFR at >26 uM
[9] = molecular target: Thymidylate synthase (Escherichia coli) (UniProt C3SWJ7); test: Inhibition of TS from Escherichia coli at >2.2*10-5 nM
[10] = molecular target: T2, Dihydrofolate reductase (Homo sapiens); test: Inhibition of recombinant human DHFR at >31 uM
[11] = molecular target: Thymidylate synthase (Escherichia coli) (UniProt C3SWJ7); test: Inhibition of TS from Escherichia coli at >2.6*10-5 nM
[12] = molecular target: T2, Dihydrofolate reductase (Homo sapiens); test: Inhibition of recombinant human DHFR at >32 uM
[13] = molecular target: Thymidylate synthase (Escherichia coli) (UniProt C3SWJ7); test: Inhibition of TS from Escherichia coli at >2.7*10-5 nM
[14] = molecular target: Thymidylate synthase (Escherichia coli) (UniProt C3SWJ7); test: Inhibition of TS from Escherichia coli at >2.3*10-5 nM
R2-CCRF-CEM = test: Inhibition of growth in MTX-resistant CCRF-CEM cell line, R2 cells; type: functional, cell-based; details: Homo sapiens
CCRF-CEM [15] = test: Protection against growth of CCRF-CEM cells in presence of 10 uM Hypoxanthine and 10 uM Deoxycytidine, relative to control; type: functional, Homo sapiens
R1-CCRF-CEM = test: Inhibition of growth in MTX-resistant CCRF-CEM cell line, R1 cells; type: functional, cell-based; details: Homo sapiens
CCRF-CEM [16] = test: Protection against growth of CCRF-CEM cells in presence of 10 uM Hypoxanthine, relative to control; type: functional, Homo sapiens
CCRF-CEM [17] = test: Protection against growth of CCRF-CEM cells in presence of 5 uM Thymidine, relative to control; type: functional, Homo sapiens
CCRF-CEM [18] = test: Protection against growth of CCRF-CEM cells in presence of 5 uM Thymidine and 10 uM Deoxycytidine, relative to control; type: functional, Homo sapiens
CCRF-CEM [19] = test: Protection against growth inhibition of CCRF-CEM cells in presence of 0.1 uM of Leucovorin at concentrations that inhibited the growth by […]%; type: functional, Homo sapiens; set-up: scale not given: the % may be the effect or the level left
CCRF-CEM [20] = test: Protection against growth of CCRF-CEM cells in presence of 10 uM Deoxycytidine, relative to control; type: functional, Homo sapiens
CCRF-CEM [21] = test: Protection against growth of CCRF-CEM cells in presence of 5 uM Thymidine, 10 uM Deoxycytidine and 10 uM Hypoxanthine, relative to control; type: functional, Homo sapiens
[22] = molecular target: Thymidylate synthase (Escherichia coli) (UniProt C3SWJ7); test: Inhibition of TS from Escherichia coli at >3.0*10-5 nM
Thymidylate synthase [23] = molecular target: T1, Thymidylate synthase; test: Inhibition of recombinant human TS at >3.2*10-5 nM
Target sequence in this assay (P04818 2-313 limits assumed): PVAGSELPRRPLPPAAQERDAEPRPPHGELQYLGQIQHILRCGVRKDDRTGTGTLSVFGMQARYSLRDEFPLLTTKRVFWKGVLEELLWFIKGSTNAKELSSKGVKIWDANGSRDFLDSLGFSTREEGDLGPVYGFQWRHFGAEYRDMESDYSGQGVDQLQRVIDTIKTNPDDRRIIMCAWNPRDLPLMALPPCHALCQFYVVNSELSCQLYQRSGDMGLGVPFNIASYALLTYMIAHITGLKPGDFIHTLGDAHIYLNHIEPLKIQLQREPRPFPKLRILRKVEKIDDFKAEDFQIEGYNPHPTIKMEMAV

CCRF-CEM [24] = test: Protection against growth inhibition of CCRF-CEM cells in presence of 10 uM of Leucovorin at concentrations that inhibited the growth by 95%; type: functional, Homo sapiens; set-up: scale not given: the % may be the effect or the level left
Dihydrofolate reductase = molecular target: T3, Dihydrofolate reductase (Homo sapiens, UniProt P00374)
T3 sequence (P00374 whole entry): T2 sequence (whole entry)

Thymidylate synthase [25] = molecular target: T1, Thymidylate synthase; test: Inhibition of recombinant human TS at >3.1*10-5 nM
Target sequence in this assay (P04818 2-313 limits assumed): as above

[26] = molecular target: Thymidylate synthase (Escherichia coli) (UniProt C3SWJ7); test: Inhibition of TS from Escherichia coli at >3.1*10-5 nM
[27] = molecular target: Thymidylate synthase (Escherichia coli) (UniProt C3SWJ7); test: Inhibition of TS from Escherichia coli at >2.0*10-5 nM
Thymidylate synthase [28] = molecular target: T1, Thymidylate synthase; test: Inhibition of recombinant human TS at >2.2*10-5 nM
Target sequence in this assay (P04818 2-313 limits assumed): as above

[29] = substrate: CCc1[nH]c2nc(N)nc(O)c2c1Sc1ccc(C(=O)N[C@@H](CCC(=O)O)C(=O)O)cc1; test: Binding with human cytosolic FPGS at <= 100 uM

IC50 (Thymidylate synthase [3]): 24 µM | IC50 (Thymidylate synthase [1]): 0.24 µM | inhibition [4]: 33%
Molecule: CCc1[nH]c2nc(N)nc(O)c2c1Sc1ccc([N+](=O)[O-])cc1

EC50 (CCRF-CEM [5]): 0.81 µM | IC50 [6]: 21 µM | EC50 (CCRF-CEM [7]): 0.45 µM
Molecule: Cc1[nH]c2nc(N)[nH]c(=O)c2c1Sc1ccc(C(=O)N[C@@H](CCC(=O)O)C(=O)O)cc1

IC50 (Thymidylate synthase [1]): 1 µM | inhibition [8]: 14% | inhibition [9]: 15%
Molecule: CCc1[nH]c2nc(N)nc(O)c2c1Sc1ccc(Br)cc1

IC50 (Thymidylate synthase [1]): 2.7 µM | inhibition [12]: 0% | inhibition [13]: 0%
Molecule: CCc1[nH]c2nc(N)nc(O)c2c1Sc1ccc(F)cc1

inhibition [22]: 15%
Molecule: CCc1[nH]c2nc(N)nc(O)c2c1Sc1cccc2ccccc12

inhibition [2]: 5% | inhibition (Thymidylate synthase [23]): 15%
Molecule: CCc1[nH]c2nc(N)nc(O)c2c1Sc1cccc(OC)c1

Second part, the molecule before the results:

Molecule: CCc1[nH]c2nc(N)nc(O)c2c1Sc1ccc(OC)cc1
IC50 (Thymidylate synthase [1]): 16 µM | inhibition [2]: 22%

Molecule: CCc1[nH]c2nc(N)nc(O)c2c1Sc1ccc2ccccc2c1
IC50 (Thymidylate synthase [1]): 5.6 µM

Molecule: CCc1[nH]c2nc(N)[nH]c(=O)c2c1Sc1ccc(Cl)c(Cl)c1
IC50 (Thymidylate synthase [1]): 0.23 µM

Molecule: CCc1[nH]c2nc(N)nc(O)c2c1Sc1cccc(Cl)c1
IC50 (Thymidylate synthase [1]): 2.6 µM | inhibition [10]: 0% | inhibition [11]: 13%

Molecule: CCc1[nH]c2nc(N)nc(O)c2c1Sc1ccc(Cl)c(Cl)c1
inhibition [14]: 41%

Molecule: CN(Cc1cnc2nc(N)nc(N)c2n1)c1ccc(C(=O)N[C@@H](CCC(=O)O)C(=O)O)cc1 [METHOTREXATE]
EC50 (R2-CCRF-CEM): 1.7 µM | Activity (CCRF-CEM [15]): 11% | EC50 (R1-CCRF-CEM): 0.565 µM | Activity (CCRF-CEM [16]): 101% | Activity (CCRF-CEM [17]): 44% | Activity (CCRF-CEM [18]): 10% | Activity (CCRF-CEM [19]): 10% | Activity (CCRF-CEM [20]): 10% | Activity (CCRF-CEM [21]): 99%

Molecule: CCc1[nH]c2nc(N)[nH]c(=O)c2c1Sc1c(C)cccc1C
IC50 (Thymidylate synthase [1]): 26 µM

Molecule: CCc1[nH]c2nc(N)nc(O)c2c1Sc1c(C)cccc1C
inhibition [10]: 0% | inhibition [11]: 0%

Molecule: CCc1[nH]c2nc(N)[nH]c(=O)c2c1Sc1cccc2ccccc12
IC50 (Thymidylate synthase [1]): 5.6 µM

Molecule: CCc1[nH]c2nc(N)nc(O)c2c1Sc1ccc(C(=O)N[C@@H](CCC(=O)O)C(=O)O)cc1
EC50 (R2-CCRF-CEM): 12.5 µM | IC50 (Thymidylate synthase [3]): 0.54 µM | IC50 (Thymidylate synthase [1]): 0.09 µM | Activity (CCRF-CEM [24]): 75% | Activity (CCRF-CEM [15]): 16% | EC50 (R1-CCRF-CEM): 7.05 µM | Activity (CCRF-CEM [16]): 16% | EC50 (CCRF-CEM [5]): 2.9 µM | Activity (CCRF-CEM [17]): 106% | Activity (CCRF-CEM [18]): 106% | IC50 (Dihydrofolate reductase): 0.42 µM | Activity (CCRF-CEM [19]): 95% | IC50 [6]: > 21 µM | Activity (CCRF-CEM [20]): 18% | EC50 (CCRF-CEM [7]): 2.7 µM | Activity (CCRF-CEM [21]): 105%

Molecule: CCc1[nH]c2nc(N)nc(O)c2c1Sc1ccc(Cl)cc1
inhibition (Thymidylate synthase [25]): 25% | inhibition [26]: 27%

Molecule: CCc1[nH]c2nc(N)nc(O)c2c1Sc1cccc(Br)c1
IC50 (Thymidylate synthase [1]): 1.1 µM | inhibition [14]: 10%

Molecule: CCc1[nH]c2nc(N)nc(O)c2c1Sc1cc(C(F)(F)F)cc(C(F)(F)F)c1
inhibition [27]: 0% | inhibition (Thymidylate synthase [28]): 18%

B1: Folylpolyglutamate synthase, mitochondrial (Homo sapiens), Q05932 (protein)
chain: MSRARSHLRAALFLAAASARGITTQVAARRGLSAWPVPQEPSMEYQDAVRMLNTLQTNAGYLEQVKRQRGDPQTQLEAMELYLARSGLQVEDLDRLNIIHVTGTKGKGSTCAFTECILRSYGLKTGFFSSPHLVQVRERIRINGQPISPELFTKYFWRLYHRLEETKDGSCVSMPPYFRFLTLMAFHVFLQEKVDLAVVEVGIGGAYDCTNIIRKPVVCGVSSLGIDHTSLLGDTVEKIAWQKGGIFKQGVPAFTVLQPEGPLAVLRDRAQQISCPLYLCPMLEALEEGGPPLTLGLEGEHQRSNAALALQLAHCWLQRQDRHGAGEPKASRPGLLWQLPLAPVFQPTSHMRLGLRNTEWPGRTQVLRRGPLTWYLDGAHTASSAQACVRWFRQALQGRERPSGGPEVRVLLFNATGDRDPAALLKLLQPCQFDYAVFCPNLTEVSSTGNADQQNFTVTLDQVLLRCLEHQQHWNHLDEEQASPDLWSAPSPEPGGSASLLLAPHPPHTCSASSLVFSCISHALQWISQGRDPIFQPPSPPKGLLTHPVAHSGASILREAAAIHVLVTGSLHLVGGVLKLLEPALSQ
Km [29]: Not Active
